“And” between values parts separate entries of the source, which are not always exact repeats. Equal values may be shown once. Inconclusive results are not listed.
Test system: Lewis lung carcinoma i.m., BDF1 mice, T/C %
Assay: NCI In Vivo Anticancer Drug Screen. Data for tumor model Lewis Lung Carcinoma (intramuscular) in B6D2F1 (BDF1) mice
Protocol: The antitumor activity of compounds was measured in mice bearing transplantable tumors. Survival or tumor size were measured and the results are expressed as the measurement made in the treated group (T) divided by the measurement made in the vehicle treated control group (C). The tumor model used in this assay is Lewis Lung Carcinoma (intramuscular) in B6D2F1 (BDF1) mice

[1] = endpoint: mean tumor weight (est.), dose: 3.12 mg/kg/injection, schedule: Q01DX011 (ip), vehicle: other, higher = larger tumour
[2] = endpoint: median survival time, dose: 12.5 mg/kg/injection, schedule: Q01DX011 (ip), vehicle: saline with Tween-80, higher = longer survival
[3] = endpoint: mean tumor weight (est.), dose: 6.25 mg/kg/injection, schedule: Q01DX011 (ip), vehicle: saline, higher = larger tumour
[4] = endpoint: mean tumor weight (est.), dose: 12.5 mg/kg/injection, schedule: Q01DX011 (ip), vehicle: saline, higher = larger tumour

O=c1[nH]c(=O)n([C@H]2CCCO2)cc1F
T/C (endpoint: mean tumor weight (est.), dose: 39.0 mg/kg/injection, schedule: Q01DX011 (ip), vehicle: saline, higher = larger tumour): 112 % of control
T/C (endpoint: mean tumor weight (est.), dose: 65.0 mg/kg/injection, schedule: Q01DX011 (ip), vehicle: saline, higher = larger tumour): 40 % of control
T/C (endpoint: median survival time, dose: 25.0 mg/kg/injection, schedule: Q04DX004 (ip), vehicle: other, higher = longer survival): 112 % of control
T/C (endpoint: median survival time, dose: 39.0 mg/kg/injection, schedule: Q01DX011 (ip), vehicle: saline, higher = longer survival): 90 % of control
T/C (endpoint: median survival time, dose: 50.0 mg/kg/injection, schedule: Q04DX004 (ip), vehicle: other, higher = longer survival): 100 % of control
T/C (endpoint: median survival time, dose: 65.0 mg/kg/injection, schedule: Q01DX011 (ip), vehicle: saline, higher = longer survival): 119 % of control
T/C (endpoint: median survival time, dose: 100.0 mg/kg/injection, schedule: Q04DX004 (ip), vehicle: other, higher = longer survival): 100 % of control
T/C (endpoint: median survival time, dose: 200.0 mg/kg/injection, schedule: Q04DX004 (ip), vehicle: other, higher = longer survival): 103 % of control

CC(C)(C)CC(C)(C)NCC(O)COc1ccc(C(C)(C)c2ccc(OCC(O)CNC(C)(C)CC(C)(C)C)cc2)cc1 (centres undefined)
T/C [1]: 68 % of control

CC(C)NCC(=O)c1ccc(O)c(O)c1
T/C (endpoint: mean tumor weight (est.), dose: 42.5 mg/kg/injection, schedule: Q01DX011 (ip), vehicle: saline, higher = larger tumour): 90 % of control
T/C (endpoint: mean tumor weight (est.), dose: 85.0 mg/kg/injection, schedule: Q01DX011 (ip), vehicle: saline, higher = larger tumour): 93 % of control
T/C (endpoint: median survival time, dose: 42.5 mg/kg/injection, schedule: Q01DX011 (ip), vehicle: saline, higher = longer survival): 120 % of control
T/C (endpoint: median survival time, dose: 85.0 mg/kg/injection, schedule: Q01DX011 (ip), vehicle: saline, higher = longer survival): 90 % of control

O=C(Nc1ccc(S(=O)(=O)O)cc1)c1ccc([N+](=O)[O-])cc1
T/C (endpoint: mean tumor weight (est.), dose: 3.5 mg/kg/injection, schedule: Q01DX011 (ip), vehicle: saline, higher = larger tumour): 87 % of control
T/C (endpoint: mean tumor weight (est.), dose: 7.0 mg/kg/injection, schedule: Q01DX011 (ip), vehicle: saline, higher = larger tumour): 120 % of control
T/C (endpoint: mean tumor weight (est.), dose: 14.0 mg/kg/injection, schedule: Q01DX011 (ip), vehicle: saline, higher = larger tumour): 94 % of control
T/C (endpoint: mean tumor weight (est.), dose: 28.0 mg/kg/injection, schedule: Q01DX011 (ip), vehicle: saline, higher = larger tumour): 82 % of control
T/C (endpoint: median survival time, dose: 3.5 mg/kg/injection, schedule: Q01DX011 (ip), vehicle: saline, higher = longer survival): 92 % of control
T/C (endpoint: median survival time, dose: 7.0 mg/kg/injection, schedule: Q01DX011 (ip), vehicle: saline, higher = longer survival): 96 % of control
T/C (endpoint: median survival time, dose: 14.0 mg/kg/injection, schedule: Q01DX011 (ip), vehicle: saline, higher = longer survival): 105 % of control
T/C (endpoint: median survival time, dose: 28.0 mg/kg/injection, schedule: Q01DX011 (ip), vehicle: saline, higher = longer survival): 117 % of control

CN=C1N[N+]2=CCCCC2S1 (centres undefined)
T/C (endpoint: median survival time, dose: 40.0 mg/kg/injection, schedule: Q02DX011 (ip), vehicle: saline with Tween-80, higher = longer survival): 99 % of control
T/C (endpoint: median survival time, dose: 60.0 mg/kg/injection, schedule: Q02DX011 (ip), vehicle: saline with Tween-80, higher = longer survival): 86 % of control
T/C (endpoint: median survival time, dose: 80.0 mg/kg/injection, schedule: Q02DX011 (ip), vehicle: saline with Tween-80, higher = longer survival): 93 % of control

S=P(N1CC1)(N1CC1)N1CC1
T/C (endpoint: median survival time, dose: 1.5 mg/kg/injection, schedule: Q01DX011 (ip), vehicle: water, higher = longer survival): 92 % of control
T/C (endpoint: median survival time, dose: 3.0 mg/kg/injection, schedule: Q01DX011 (ip), vehicle: water, higher = longer survival): 110 % of control and 119 % of control
T/C (endpoint: median survival time, dose: 6.0 mg/kg/injection, schedule: Q01DX011 (ip), vehicle: water, higher = longer survival): 86 % of control

CC(C(=O)O)N1C(=O)c2ccccc2C1=O (centres undefined)
T/C (endpoint: median survival time, dose: 4.0 mg/kg/injection, schedule: Q01DX009 (ip), vehicle: water, higher = longer survival): 110 % of control
T/C (endpoint: median survival time, dose: 8.0 mg/kg/injection, schedule: Q01DX009 (ip), vehicle: water, higher = longer survival): 107 % of control
T/C (endpoint: median survival time, dose: 16.0 mg/kg/injection, schedule: Q01DX009 (ip), vehicle: water, higher = longer survival): 103 % of control
T/C (endpoint: median survival time, dose: 32.0 mg/kg/injection, schedule: Q01DX009 (ip), vehicle: water, higher = longer survival): 108 % of control

C[C@]12CC[C@H]3[C@@H](CC[C@]4(O)C[C@@H](O)CC[C@]34C=O)[C@@]1(O)CC[C@@H]2C1=CC(=O)OC1
T/C [2]: 106 % of control
T/C (endpoint: median survival time, dose: 50.0 mg/kg/injection, schedule: Q01DX011 (ip), vehicle: saline with Tween-80, higher = longer survival): 115 % of control

COc1ccc2c(Nc3ccc(NS(C)(=O)=O)cc3)c3ccccc3nc2c1
T/C (endpoint: mean tumor weight, dose: 12.5 mg/kg/injection, schedule: Q01DX011 (ip), vehicle: saline with Tween-80, higher = larger tumour): 52 % of control
T/C [2]: 107 % of control

ClC1(c2ccccc2)c2ccc(Br)cc2-c2cc(Br)ccc21
T/C (endpoint: mean tumor weight (est.), dose: 100.0 mg/kg/injection, schedule: Q01DX011 (ip), vehicle: saline, higher = larger tumour): 53 % of control
T/C (endpoint: mean tumor weight (est.), dose: 200.0 mg/kg/injection, schedule: Q01DX011 (ip), vehicle: saline, higher = larger tumour): 40 % of control
T/C (endpoint: median survival time, dose: 100.0 mg/kg/injection, schedule: Q01DX011 (ip), vehicle: saline, higher = longer survival): 88 % of control
T/C (endpoint: median survival time, dose: 200.0 mg/kg/injection, schedule: Q01DX011 (ip), vehicle: saline, higher = longer survival): 88 % of control

CC(=O)O[C@H]1[C@H]2O[C@]23[C@@H]2CC[C@@H]4C[C@@H](O)CC[C@]4(C)[C@H]2CC[C@]3(C)[C@H]1c1ccc(=O)oc1
T/C (endpoint: mean tumor weight (est.), dose: 7.5 mg/kg/injection, schedule: Q01DX011 (ip), vehicle: other, higher = larger tumour): 94 % of control
T/C (endpoint: median survival time, dose: 7.5 mg/kg/injection, schedule: Q01DX011 (ip), vehicle: other, higher = longer survival): 90 % of control

CCN1c2ccccc2C(Cl)(c2ccc(N(C)C)cc2)c2ccccc21
T/C (endpoint: mean tumor weight (est.), dose: 3.13 mg/kg/injection, schedule: Q01DX011 (ip), vehicle: saline, higher = larger tumour): 121 % of control
T/C [3]: 50 % of control
T/C [4]: 47 % of control

Clc1ccc2nc(CI)c(CI)nc2c1
T/C (endpoint: mean tumor weight (est.), dose: 3.12 mg/kg/injection, schedule: Q01DX011 (ip), vehicle: saline with Tween-80, higher = larger tumour): 78 % of control
T/C (endpoint: mean tumor weight (est.), dose: 6.25 mg/kg/injection, schedule: Q01DX011 (ip), vehicle: saline with Tween-80, higher = larger tumour): 82 % of control
T/C (endpoint: mean tumor weight (est.), dose: 12.5 mg/kg/injection, schedule: Q01DX011 (ip), vehicle: saline with Tween-80, higher = larger tumour): 89 % of control
T/C (endpoint: median survival time, dose: 3.12 mg/kg/injection, schedule: Q01DX011 (ip), vehicle: saline with Tween-80, higher = longer survival): 94 % of control
T/C (endpoint: median survival time, dose: 6.25 mg/kg/injection, schedule: Q01DX011 (ip), vehicle: saline with Tween-80, higher = longer survival): 98 % of control
T/C [2]: 88 % of control

CNc1ccc(O)cc1
T/C [3]: 97 % of control
T/C [4]: 97 % of control
T/C (endpoint: mean tumor weight (est.), dose: 25.0 mg/kg/injection, schedule: Q01DX011 (ip), vehicle: saline, higher = larger tumour): 89 % of control
T/C (endpoint: mean tumor weight (est.), dose: 50.0 mg/kg/injection, schedule: Q01DX011 (ip), vehicle: saline, higher = larger tumour): 82 % of control
T/C (endpoint: median survival time, dose: 6.25 mg/kg/injection, schedule: Q01DX011 (ip), vehicle: saline, higher = longer survival): 101 % of control
T/C (endpoint: median survival time, dose: 12.5 mg/kg/injection, schedule: Q01DX011 (ip), vehicle: saline, higher = longer survival): 105 % of control
T/C (endpoint: median survival time, dose: 25.0 mg/kg/injection, schedule: Q01DX011 (ip), vehicle: saline, higher = longer survival): 100 % of control
T/C (endpoint: median survival time, dose: 50.0 mg/kg/injection, schedule: Q01DX011 (ip), vehicle: saline, higher = longer survival): 101 % of control

OCC1OC(n2cnc3c(=S)nc[nH]c32)C(O)C1O (centres undefined)
T/C (endpoint: mean tumor weight (est.), dose: 1.56 mg/kg/injection, schedule: Q01DX011 (ip), vehicle: other, higher = larger tumour): 100 % of control
T/C [1]: 78 % of control
T/C (endpoint: mean tumor weight (est.), dose: 25.0 mg/kg/injection, schedule: Q01DX011 (ip), vehicle: other, higher = larger tumour): 96 % of control
T/C (endpoint: median survival time, dose: 0.78 mg/kg/injection, schedule: Q01DX011 (ip), vehicle: other, higher = longer survival): 108 % of control
T/C (endpoint: median survival time, dose: 1.56 mg/kg/injection, schedule: Q01DX011 (ip), vehicle: other, higher = longer survival): 114 % of control and 120 % of control
T/C (endpoint: median survival time, dose: 3.12 mg/kg/injection, schedule: Q01DX011 (ip), vehicle: other, higher = longer survival): 95 % of control
T/C (endpoint: median survival time, dose: 6.25 mg/kg/injection, schedule: Q01DX011 (ip), vehicle: other, higher = longer survival): 110 % of control
T/C (endpoint: median survival time, dose: 12.5 mg/kg/injection, schedule: Q01DX011 (ip), vehicle: other, higher = longer survival): 112 % of control

Cc1cc(C)c(C(=O)CC(=O)c2cccnc2)c(C)c1
T/C (endpoint: mean tumor weight (est.), dose: 8.75 mg/kg/injection, schedule: Q01DX011 (ip), vehicle: other, higher = larger tumour): 69 % of control
T/C (endpoint: mean tumor weight (est.), dose: 17.5 mg/kg/injection, schedule: Q01DX011 (ip), vehicle: other, higher = larger tumour): 70 % of control
T/C (endpoint: mean tumor weight (est.), dose: 35.0 mg/kg/injection, schedule: Q01DX011 (ip), vehicle: other, higher = larger tumour): 93 % of control
T/C (endpoint: mean tumor weight (est.), dose: 70.0 mg/kg/injection, schedule: Q01DX011 (ip), vehicle: other, higher = larger tumour): 83 % of control
T/C (endpoint: median survival time, dose: 8.75 mg/kg/injection, schedule: Q01DX011 (ip), vehicle: other, higher = longer survival): 92 % of control
T/C (endpoint: median survival time, dose: 17.5 mg/kg/injection, schedule: Q01DX011 (ip), vehicle: other, higher = longer survival): 106 % of control
T/C (endpoint: median survival time, dose: 35.0 mg/kg/injection, schedule: Q01DX011 (ip), vehicle: other, higher = longer survival): 106 % of control
T/C (endpoint: median survival time, dose: 70.0 mg/kg/injection, schedule: Q01DX011 (ip), vehicle: other, higher = longer survival): 94 % of control

— PubChem BioAssay AID272 (DTP/NCI, 2004)
